As usually defined, the IC50 is the midpoint of a concentration-inhibition curve. A lower IC50 goes with greater potency.

T1 sequence (P01116 1-188 isoform P01116-2 G12C): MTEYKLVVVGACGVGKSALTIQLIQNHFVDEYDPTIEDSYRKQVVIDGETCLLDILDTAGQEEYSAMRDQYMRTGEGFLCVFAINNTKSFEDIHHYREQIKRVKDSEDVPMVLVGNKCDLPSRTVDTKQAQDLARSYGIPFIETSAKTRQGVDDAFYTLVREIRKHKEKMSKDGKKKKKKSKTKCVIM

The test addresses T1, KRas G12C (Homo sapiens, UniProt P01116, G12C).
T1 construct: NCI-H358 cells (ATCC CRL-5807) express KRas G12C
The experiment in a line: Inhibition of KRas G12C-dependent cell growth: Phospho-ERK in NCI-H358 cells. To be noted: NCI-H358 cells expressing KRas G12C; Phospho-ERK (Thr202/Tyr204) normalized to GAPDH; 3 hours compound; 4 parameter fit. The class given is cell-based. In a few lines: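 NCI-H358 cells (KRas G12C) exposed to compounds for 3 h, 0.5% DMSO final. Fixed cells immunostained for pERK(Thr202/Tyr204) and GAPDH with infrared secondary antibodies. pERK normalized to GAPDH, expressed as percent of DMSO control; IC50 from 4-parameter dose-response fit.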
Turning to `C=CC(=O)N1CCC12CCN(c1ncnc3c(F)c(-c4cccc5ccc(F)c(Cl)c45)ncc13)C2` (stereo not drawn) [Example 235], it took 10 µM to reach half-maximal inhibition (IC50).
Consider `C=CC(=O)N1CCCC12CN(c1ncnc3c(F)c(-c4cccc5ccc(F)c(Cl)c45)ncc13)C2` [Example 236], for which half-maximal inhibition (IC50) required 10 µM.
`C=CC(=O)N1CCN(c2nc(C(F)F)nc3c(F)c(-c4cccc5ccc(F)c(Cl)c45)ncc23)C[C@@H]1CC#N` [Example 237] had an IC50 of 0.23 µM. This IC50 is about 43-fold lower than that of the compound before.
For `C=CC(=O)N1CC[C@@H]2[C@H]1CN2c1nc(C)nc2c(F)c(-c3cccc4ccc(F)c(Cl)c34)ncc12` [Example 238], the IC50 turned out to be 0.379 µM.
Turning to `C=CC(=O)N1CC[C@@H]2[C@H]1CN2c1nc(OC[C@@H]2CCCN2C)nc2c(F)c(-c3cccc4ccc(F)c(Cl)c34)ncc12` [Example 239], the IC50 was 0.005 µM.
`C=C(F)C(=O)N1CCN(c2nc(O[C@@H]3CO[C@H]4[C@@H]3OC[C@H]4O)nc3c(F)c(-c4cccc5ccc(F)c(Cl)c45)ncc23)C[C@@H]1CC#N` [Example 240]: the IC50 was determined as 10 µM.
The compound `C=CC(=O)N1CCN(c2ncnc3c(F)c(-c4cccc(Cl)c4C4CC4)ncc23)C[C@@H]1CC#N` [Example 241] displayed an IC50 of 0.111 µM.
The compound `C=CC(=O)N1CCN(c2ncnc3c(F)c(-c4c(Cl)c(C)cc5[nH]ncc45)ncc23)C[C@@H]1CC#N` [Example 242] had an IC50 of 0.187 µM.
`C=CC(=O)N1CCN(c2ncnc3c(F)c(-c4c(N)c(Cl)cc(Cl)c4F)ncc23)C[C@@H]1CC#N` [Example 243] showed a half-maximal inhibitory concentration (IC50) of 1.2 µM. Against the preceding compound, the IC50 is about 6.4-fold higher.
Turning to `C=C(F)C(=O)N1CCN(c2nc(OC[C@@H]3CC4CCN3C4)nc3c(F)c(-c4cccc5ccc(F)c(Cl)c45)ncc23)C[C@@H]1CC#N` (stereo partly drawn) [Example 244], half-maximal inhibition (IC50) was put at 0.088 µM.
The compound `C#Cc1cccc2cccc(-c3ncc4c(N5CC[C@@H]6[C@H]5CN6C(=O)C=C)ncnc4c3F)c12` [Example 245, 1-((1R,5R)-2-(7-(8-ethynylnaphthalen-1-yl)-8-fluoropyrido[4,3-d]pyrimidin-4-yl)-2,6-diazabicyclo[3.2.0]heptan-6-yl)prop-2-en-1-one] returned an IC50 of 4.04 µM.
Consider `C=CC(=O)N1CCC12CN(c1ncnc3c(F)c(-c4cccc5ccc(F)c(Cl)c45)ncc13)C2` [Example 246, 1-(6-(7-(8-chloro-7-fluoronaphthalen-1-yl)-8-fluoropyrido[4,3-d]pyrimidin-4-yl)-1,6-diazaspiro[3.3]heptan-1-yl)prop-2-en-1-one], for which the IC50 is 6.47 µM. This IC50 lies about 1.6-fold higher than the previous one.
With `C#Cc1cccc2cccc(-c3ncc4c(N5C[C@@H]6[C@H]5CCN6C(=O)C=C)ncnc4c3F)c12` [Example 247, 1-((1R,5R)-6-(7-(8-ethynylnaphthalen-1-yl)-8-fluoropyrido[4,3-d]pyrimidin-4-yl)-2,6-diazabicyclo[3.2.0]heptan-2-yl)prop-2-en-1-one], 0.105 µM corresponded to half-maximal inhibition (IC50).
`C=CC(=O)N1CCN(c2ncnc3c(F)c(-c4cc(F)cc5ccccc45)ncc23)C[C@@H]1CC#N` [Example 249] came in with an IC50 of 1.25 µM.
Under `C=CC(=O)N1CCN(c2ncnc3c(F)c(-c4c(C)c(Cl)cc5[nH]ncc45)ncc23)C[C@@H]1CC#N` [Example 250] stands 0.091 µM.
Under `C=CC(=O)N1CC[C@@H]2[C@H]1CN2c1ncnc2c(F)c(-c3cncc4cccc(Cl)c34)ncc12` [Example 251] stands 0.799 µM; under `C=CC(=O)N1CC[C@@H]2[C@H]1CN2c1nc(OC[C@@H]2[C@@H]3C[C@@H]3CN2C)nc2c(F)c(-c3cccc4ccc(F)c(Cl)c34)ncc12` [Example 252], 0.029 µM; under `C=CC(=O)N1CC[C@@H]2[C@H]1CN2c1nc(OC[C@@H]2[C@H]3C[C@H]3CN2C)nc2c(F)c(-c3cccc4ccc(F)c(Cl)c34)ncc12` [Example 253], 0.035 µM.
For the compound `C=CC(=O)N1CC[C@@H]2[C@H]1CN2c1ncnc2cc(-c3cccc4ccc(F)c(Cl)c34)ncc12` [Example 254], the IC50 stood at 2.16 µM.
Under `C=CC(=O)N1CCN(c2ncnc3c(F)c(-c4cc(Cl)cc5ccccc45)ncc23)CC1` [Example 255] stands 10 µM.
`C=CC(=O)N1CCN(c2ncnc3c(F)c(-c4cc(C#N)cc5ccccc45)ncc23)CC1` [Example 256] had an IC50 of 10 µM.
In the case of `C=CC(=O)N1CCN(c2ncnc3c(F)c(-c4cccc5cc(Cl)ccc45)ncc23)CC1` [Example 257], the IC50 turned out to be 10 µM.
`C=CC(=O)N1CCN(c2ncnc3c(F)c(-c4cccc5cc(F)ccc45)ncc23)CC1` [Example 258] returned an IC50 of 10 µM.
In turn, `COC/C=C/C(=O)N1CC[C@@H]2[C@H]1CN2c1ncnc2c(F)c(-c3cccc4ccc(F)c(Cl)c34)ncc12` [Example 259] yielded an IC50 of 9 µM.
With `C/C=C/C(=O)N1CC[C@@H]2[C@H]1CN2c1ncnc2c(F)c(-c3cccc4ccc(F)c(Cl)c34)ncc12` [Example 260], the IC50 stood at 10 µM.
`O=C(/C=C/C(F)F)N1CC[C@@H]2[C@H]1CN2c1ncnc2c(F)c(-c3cccc4ccc(F)c(Cl)c34)ncc12` [Example 261] had an IC50 of 0.486 µM.
`C=CC(=O)N1CC[C@@H]2[C@H]1CN2c1nc(OC[C@@H]2CC(F)(F)CN2C)nc2c(F)c(-c3cccc4ccc(F)c(Cl)c34)ncc12` [Example 262] registered an IC50 of 0.114 µM.
As to `O=C(/C=C/C(F)(F)F)N1CC[C@@H]2[C@H]1CN2c1ncnc2c(F)c(-c3cccc4ccc(F)c(Cl)c34)ncc12` [Example 263], the IC50 came out at 1.14 µM.
Consider `C=CC(=O)N1CC[C@@H]2[C@H]1CN2c1nc(OC[C@@H]2C[C@@H](F)CN2C)nc2c(F)c(-c3cccc4ccc(F)c(Cl)c34)ncc12` [Example 264], for which half-maximal inhibition (IC50) was put at 0.02 µM. This IC50 is about 57-fold lower than that of the compound before.
In turn, `C=CC(=O)N1CC[C@@H]2[C@H]1CN2c1nc(OC2COC2)nc2c(F)c(-c3cccc4ccc(F)c(Cl)c34)ncc12` [Example 265] yielded an IC50 of 1.49 µM.
Compound `C=CC(=O)N1CC[C@@H]2[C@H]1CN2c1ncnc2c(F)c(-c3cccc4cc(OC)ccc34)ncc12` [Example 266] yielded a half-maximal inhibitory concentration (IC50) of 10 µM.
`C=CC(=O)N1CC[C@@H]2[C@H]1CN2c1nc(OC)nc2c(F)c(-c3cccc4ccc(F)c(Cl)c34)ncc12` [Example 267] displayed a half-maximal inhibitory concentration (IC50) of 0.33 µM.
Take `C=CC(=O)N1CC[C@@H]2[C@H]1CN2c1nc(OCC)nc2c(F)c(-c3cccc4ccc(F)c(Cl)c34)ncc12` [Example 268]: the IC50 was determined as 1.13 µM. This IC50 lies about 3.4-fold higher than the previous one.
Consider `C=CC(=O)N1CC[C@@H]2[C@H]1CN2c1nc(N(C)C)nc2c(F)c(-c3cccc4ccc(F)c(Cl)c34)ncc12` [Example 269], for which inhibition was half-maximal at 4.49 µM (IC50).
The value for `C=CC(=O)N1CC[C@@H]2[C@H]1CN2c1nc(OC(C)C)nc2c(F)c(-c3cccc4ccc(F)c(Cl)c34)ncc12` [Example 270] was 3.78 µM; that for `C=CC(=O)N1CC[C@@H]2[C@H]1CN2c1nc(NC)nc2c(F)c(-c3cccc4ccc(F)c(Cl)c34)ncc12` [Example 271] was 1.07 µM.
Compound `C=CC(=O)N1CC[C@@H]2[C@H]1CN2c1nc(OC2CC2)nc2c(F)c(-c3cccc4ccc(F)c(Cl)c34)ncc12` [Example 272] registered an IC50 of 1.47 µM.
Under `C=CC(=O)N1CC[C@@H]2[C@H]1CN2c1nc(N2CC(N(C)C)C2)nc2c(F)c(-c3cccc4ccc(F)c(Cl)c34)ncc12` [Example 273] stands 0.016 µM; under `C=CC(=O)N1CC[C@@H]2[C@H]1CN2c1nc(N(C)CC)nc2c(F)c(-c3cccc4ccc(F)c(Cl)c34)ncc12` [Example 274], 10 µM; under `C=CC(=O)N1CC[C@@H]2[C@H]1CN2c1nc(N(CC)CC)nc2c(F)c(-c3cccc4ccc(F)c(Cl)c34)ncc12` [Example 275], 10 µM.
The value for `C=CC(=O)N1CC[C@@H]2[C@H]1CN2c1ncnc2c(F)c(-c3cccc4sccc34)ncc12` [Example 276] was 6.61 µM; that for `C=CC(=O)N1CC[C@@H]2[C@H]1CN2c1ncnc2c(F)c(-c3cccc(Cl)c3C3CC3)ncc12` [Example 277] was 0.553 µM; that for `C=CC(=O)N1CC[C@@H]2[C@H]1CN2c1ncnc2c(F)c(-c3cccc4ccsc34)ncc12` [Example 278] was 10 µM.
`C=CC(=O)N1CC[C@@H]2[C@H]1[C@@H](C)N2c1ncnc2c(F)c(-c3cccc4ccc(F)c(Cl)c34)ncc12` [Example 279]: half-maximal inhibition (IC50) required 0.408 µM. This IC50 is about 25-fold lower than that of the compound before.
Under `C=CC(=O)N1CC[C@@H]2[C@H]1[C@H](C)N2c1ncnc2c(F)c(-c3cccc4ccc(F)c(Cl)c34)ncc12` [Example 280] stands 0.09 µM; under `C=CC(=O)N1CC[C@@H]2[C@H]1CN2c1ncnc2c(F)c(-c3c(O)ccc4ccccc34)ncc12` [Example 281], 2.34 µM.
Compound `C=CC(=O)N1CC[C@@H]2[C@H]1CN2c1nc(N)nc2c(F)c(-c3cccc4ccc(F)c(Cl)c34)ncc12` [Example 282] returned an IC50 of 0.287 µM.
In turn, `C=CC(=O)N1CC[C@@H]2[C@H]1CN2c1ncnc2c(F)c(-c3cccc4cccc(C)c34)ncc12` [Example 283] had an IC50 of 2.43 µM.
`C=CC(=O)N1CC[C@@H]2[C@H]1CN2c1ncnc2c(F)c(-c3cccc4cccc(Cl)c34)ncc12` [Example 284] returned a half-inhibitory concentration (IC50) of 0.557 µM.
The compound `C=CC(=O)N1CC[C@@H]2[C@H]1CN2c1ncnc2c(F)c(-c3cccc4ccc(F)c(C)c34)ncc12` [Example 285] showed an IC50 of 0.782 µM.
As for `C=CC(=O)N1CC[C@@H]2[C@H]1CN2c1ncnc2c(F)c(-c3cc(O)cc4cccc(Cl)c34)ncc12` [Example 288, 1-((1R,5R)-6-(7-(8-chloro-3-hydroxynaphthalen-1-yl)-8-fluoropyrido[4,3-d]pyrimidin-4-yl)-2,6-diazabicyclo[3.2.0]heptan-2-yl)prop-2-en-1-one], the midpoint of inhibition, the IC50, lay at 0.015 µM.

(Values after patent US11548888B2, “KRas G12C inhibitors” (Mirati Therapeutics, Inc., priority 2019, dated 2023).)
